Legend:
Assay in all cases: In vitro competitive activity-based protein profiling (gel-based, FP-Rh or HT-01 probe)
Format in all cases: biochemical
PLA2G7 = biological target: T1, PLA2G7 (Mus musculus, UniProt Q60963); details: for inhibition at 1 µM: 1 μM inhibitor, read-out: % Inhibition at 1 μM, D = PLA2G7; for inhibition at 10 µM: 10 μM inhibitor, read-out: % Inhibition at 10 μM, D = PLA2G7; for IC50: mouse brain membrane fraction or cell lysates, 30 min preincubation at 37° C.
T1 construct: Proteomes (mouse brain membrane fraction or cell lysates); from tissue; host or cells: mouse brain membrane fraction (or cell lysates, not specified)
T1 sequence (Q60963 22-440): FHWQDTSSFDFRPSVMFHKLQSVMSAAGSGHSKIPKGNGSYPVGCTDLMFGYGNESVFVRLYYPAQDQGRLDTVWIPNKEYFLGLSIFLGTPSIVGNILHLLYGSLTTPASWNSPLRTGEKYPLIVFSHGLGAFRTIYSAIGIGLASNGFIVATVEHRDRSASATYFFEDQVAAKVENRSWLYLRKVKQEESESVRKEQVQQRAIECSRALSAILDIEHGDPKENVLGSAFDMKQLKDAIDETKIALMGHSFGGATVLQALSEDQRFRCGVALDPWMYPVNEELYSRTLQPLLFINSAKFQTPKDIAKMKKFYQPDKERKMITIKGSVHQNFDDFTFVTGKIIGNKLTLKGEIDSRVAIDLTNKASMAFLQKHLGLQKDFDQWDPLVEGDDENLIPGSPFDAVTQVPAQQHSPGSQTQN
Outline: (§1)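 Read-out: fluorescent band intensity on SDS-PAGE gels, reporting remaining serine hydrolase activity. Before that, proteome (mouse brain membranes or cell lysates, 1.0 mg/mL) saw a range of inhibitor concentrations for 30 min at 37° C, followed by 30 min probe labelling (FP-Rh or HT-01).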

MAGL = biological target: T2, MAGL (Mus musculus, UniProt O35678); details: for inhibition at 1 µM: 1 μM inhibitor; for inhibition at 10 µM: 10 μM inhibitor; for IC50: mouse brain membrane fraction or cell lysates, 30 min preincubation at 37° C., read-out: Mouse (IC50 value, nM) MAGL
T2 construct: Proteomes (mouse brain membrane fraction or cell lysates); from tissue; host or cells: mouse brain membrane fraction (or cell lysates, not specified)
T2 sequence (O35678 1-303): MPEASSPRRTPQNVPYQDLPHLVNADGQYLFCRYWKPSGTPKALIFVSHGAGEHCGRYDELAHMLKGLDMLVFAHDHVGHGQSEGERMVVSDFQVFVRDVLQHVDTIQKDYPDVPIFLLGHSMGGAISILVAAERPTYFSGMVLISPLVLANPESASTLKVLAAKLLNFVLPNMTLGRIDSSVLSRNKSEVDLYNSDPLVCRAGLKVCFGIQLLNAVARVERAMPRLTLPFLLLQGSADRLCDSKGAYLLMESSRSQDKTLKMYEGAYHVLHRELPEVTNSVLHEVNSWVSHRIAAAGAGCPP
Outline: as §1

ABHD6 = biological target: T3, ABHD6 (Mus musculus, UniProt Q8R2Y0); details: for inhibition at 1 µM: 1 μM inhibitor, read-out: % Inhibition at 1 μM, C = ABHD6; for inhibition at 10 µM: 10 μM inhibitor, read-out: % Inhibition at 10 μM, C = ABHD6; for IC50: mouse brain membrane fraction or cell lysates, 30 min preincubation at 37° C., read-out: Mouse (IC50 value, nM) ABHD6
T3 construct: Proteomes (mouse brain membrane fraction or cell lysates); from tissue; host or cells: mouse brain membrane fraction (or cell lysates, not specified)
T3 sequence (Q8R2Y0 1-336): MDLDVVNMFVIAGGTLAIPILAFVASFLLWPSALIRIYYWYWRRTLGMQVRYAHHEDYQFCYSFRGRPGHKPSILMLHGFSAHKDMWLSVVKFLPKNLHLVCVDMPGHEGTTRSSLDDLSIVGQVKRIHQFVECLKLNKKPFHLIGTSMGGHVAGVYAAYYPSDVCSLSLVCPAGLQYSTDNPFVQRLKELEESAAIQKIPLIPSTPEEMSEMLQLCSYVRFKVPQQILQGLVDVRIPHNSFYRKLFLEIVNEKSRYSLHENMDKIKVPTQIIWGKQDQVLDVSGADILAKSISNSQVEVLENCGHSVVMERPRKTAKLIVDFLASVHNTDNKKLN
Outline: as §1

FAAH = biological target: T4, FAAH (Mus musculus, UniProt O08914); details: for inhibition at 1 µM: 1 μM inhibitor, read-out: % Inhibition at 1 μM, B = FAAH; for inhibition at 10 µM: 10 μM inhibitor, read-out: % Inhibition at 10 μM, B = FAAH; for IC50: mouse brain membrane fraction or cell lysates, 30 min preincubation at 37° C., read-out: Mouse (IC50 value, nM) FAAH
T4 construct: Proteomes (mouse brain membrane fraction or cell lysates); from tissue; host or cells: mouse brain membrane fraction (or cell lysates, not specified)
T4 sequence (O08914 1-579): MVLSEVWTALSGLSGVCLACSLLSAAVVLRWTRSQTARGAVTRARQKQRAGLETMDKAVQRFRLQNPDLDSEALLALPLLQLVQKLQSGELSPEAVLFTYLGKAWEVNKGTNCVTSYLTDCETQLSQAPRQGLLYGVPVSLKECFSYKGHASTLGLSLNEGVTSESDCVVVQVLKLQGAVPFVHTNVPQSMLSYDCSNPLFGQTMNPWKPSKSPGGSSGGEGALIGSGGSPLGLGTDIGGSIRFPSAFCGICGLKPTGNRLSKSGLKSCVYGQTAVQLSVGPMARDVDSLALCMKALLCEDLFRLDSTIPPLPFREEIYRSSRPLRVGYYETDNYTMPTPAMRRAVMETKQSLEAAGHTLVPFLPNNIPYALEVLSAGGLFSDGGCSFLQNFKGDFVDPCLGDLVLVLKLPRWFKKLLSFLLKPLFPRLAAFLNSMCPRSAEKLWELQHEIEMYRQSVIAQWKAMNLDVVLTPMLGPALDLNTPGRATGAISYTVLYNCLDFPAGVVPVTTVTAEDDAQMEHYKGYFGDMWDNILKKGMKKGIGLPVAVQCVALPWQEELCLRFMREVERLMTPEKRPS
Outline: as §1

Structure (SMILES)	inhibition at 1 µM (PLA2G7) [%]	inhibition at 10 µM (PLA2G7) [%]	inhibition at 1 µM (MAGL) [%]	inhibition at 10 µM (MAGL) [%]	inhibition at 1 µM (ABHD6) [%]	inhibition at 10 µM (ABHD6) [%]	inhibition at 1 µM (FAAH) [%]	inhibition at 10 µM (FAAH) [%]	IC50 (PLA2G7) [nM]	IC50 (MAGL) [nM]	IC50 (ABHD6) [nM]	IC50 (FAAH) [nM]
O=C(N1CCN(CC2CC2)CC1)n1cc(Cl)cn1 [Example 215, (4-Chloro-1H-pyrazol-1-yl)(4-(cyclopropylmethyl)piperazin-1-yl)methanone]	< 25	> 75	25 to 75	> 75	> 75	> 75	> 75	> 75	–	–	–	–
O=C(N1CCN(Cc2cccc(Oc3ccccc3)c2)CC1)n1cc(Cl)cn1 [Example 216, (4-Chloro-1H-pyrazol-1-yl)(4-(3-phenoxybenzyl)piperazin-1-yl)methanone]	< 25	–	> 75	–	> 75	–	> 75	–	> 1000	< 100	< 100	< 100
O=C(N1CCN(Cc2ccc(N3CCOCC3)cc2)CC1)n1cc(Cl)cn1 [Example 217, (4-Chloro-1H-pyrazol-1-yl)(4-(4-morpholinobenzyl)piperazin-1-yl)methanone]	> 75	–	> 75	–	> 75	–	> 75	–	–	–	–	–
Cc1cc(N2CCOCC2)ccc1CN1CCN(C(=O)n2cc(Cl)cn2)CC1 [Example 218, (4-Chloro-1H-pyrazol-1-yl)(4-(2-methyl-4-morpholinobenzyl)piperazin-1-yl)methanone]	> 75	–	> 75	–	> 75	–	> 75	–	100 to 1000	< 100	100 to 1000	100 to 1000
CN(Cc1cccc(-c2ccncc2)c1)C(=O)n1cc(-c2ccccc2)cn1 [Example 219, N-Methyl-4-phenyl-N-(3-(pyridin-4-yl)benzyl)-1H-pyrazole-1-carboxamide]	> 75	> 75	> 75	> 75	> 75	> 75	> 75	> 75	< 100	> 1000	100 to 1000	< 100
CN(Cc1cccc(-c2ccncc2)c1)C(=O)n1cc(Cl)cn1 [Example 220, 4-Chloro-N-methyl-N-(3-(pyridin-4-yl)benzyl)-1H-pyrazole-1-carboxamide]	25 to 75	> 75	> 75	> 75	> 75	> 75	> 75	> 75	> 1000	< 100	100 to 1000	< 100
CN(Cc1cccc(-c2ccncc2)c1)C(=O)n1cc(C#N)cn1 [Example 221, 4-Cyano-N-methyl-N-(3-(pyridin-4-yl)benzyl)-1H-pyrazole-1-carboxamide]	25 to 75	< 25	> 75	> 75	> 75	> 75	> 75	> 75	–	–	–	–
CN(Cc1cccc(-c2ccncc2)c1)C(=O)n1cc(C(F)(F)F)cn1 [Example 222, N-methyl-N-(3-(pyridin-4-yl)benzyl)-4-(trifluoromethyl)-1H-pyrazole-1-carboxamide]	25 to 75	< 25	> 75	> 75	> 75	> 75	> 75	> 75	–	–	–	–
CNC(=O)c1cnn(C(=O)N2CCN(Cc3ccc(Cl)cc3)CC2)c1 [Example 223, 1-(4-(4-Chlorobenzyl)piperazine-1-carbonyl)-N-methyl-1H-pyrazole-4-carboxamide]	> 75	–	> 75	–	> 75	–	> 75	–	–	100 to 1000	< 100	100 to 1000
O=C(N1CCN(Cc2ccccc2Cl)CC1)n1cc(Cl)cn1 [Example 224, (4-Chloro-1H-pyrazol-1-yl)(4-(2-chlorobenzyl)piperazin-1-yl)methanone]	< 25	–	> 75	–	> 75	–	> 75	–	100 to 1000	< 100	100 to 1000	100 to 1000
O=C(N1CCN(Cc2cccc(Cl)c2)CC1)n1cc(Cl)cn1 [Example 225, (4-Chloro-1H-pyrazol-1-yl)(4-(3-chlorobenzyl)piperazin-1-yl)methanone]	< 25	–	> 75	–	> 75	–	> 75	–	> 1000	< 100	100 to 1000	< 100
O=C(N1CCN(Cc2ccc(Cl)cc2)CC1)n1cc(Cl)cn1 [Example 226, (4-Chloro-1H-pyrazol-1-yl)(4-(4-chlorobenzyl)piperazin-1-yl)methanone]	< 25	–	> 75	–	> 75	–	> 75	–	> 1000	< 100	< 100	< 100
O=C(N1CCN(c2ccccc2Cl)CC1)n1cc(C(F)(F)F)cn1 [Example 227, (4-(2-Chlorophenyl)piperazin-1-yl)(4-(trifluoromethyl)-1H-pyrazol-1-yl)methanone]	> 75	> 75	> 75	> 75	> 75	> 75	> 75	> 75	< 100	< 100	< 100	< 100
O=C(N1CCN(c2cccc(Cl)c2)CC1)n1cc(C(F)(F)F)cn1 [Example 228, (4-(3-Chlorophenyl)piperazin-1-yl)(4-(trifluoromethyl)-1H-pyrazol-1-yl)methanone]	> 75	> 75	> 75	> 75	> 75	> 75	> 75	> 75	–	–	–	–
